PubChem BioAssay (NCI)
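A five-concentration, 48-hour dose response in 96-well plates underlies each endpoint, interpolated linearly between surrounding concentrations. At the TGI there is no net growth.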

How the values were obtained:
Experiment in all cases: inhibition of tumour cell growth, NCI panel, 48 h
[1] = tested on: MALME-3M melanoma
[2] = tested on: NCI-H522 lung
[3] = tested on: SNB-75 CNS
[4] = tested on: LOX IMVI melanoma
[5] = tested on: COLO 205 colon
[6] = tested on: HL-60(TB) leukemia
[7] = tested on: RPMI-8226 leukemia
[8] = tested on: SK-MEL-5 melanoma
[9] = tested on: UO-31 renal
[10] = tested on: ACHN renal
[11] = tested on: U251 CNS

| Compound | TGI [1] [µM] | TGI [2] [µM] | TGI [3] [µM] | TGI [4] [µM] | TGI [5] [µM] | TGI [6] [µM] | TGI [7] [µM] | TGI [8] [µM] | TGI [9] [µM] | TGI [10] [µM] | TGI [11] [µM] |
| --- | --- | --- | --- | --- | --- | --- | --- | --- | --- | --- | --- |
| c1ccc(N=C2c3ccsc3C(=Nc3ccccc3)c3ccsc32)cc1 | 0.921 | 4.34 | 2.45 | 1.38 | 6.01 | 4.2 | 11.7 | 2.35 | 3.74 | 3.04 | 4.01 |
| CCOC(=O)Cn1nnc2ccc(Nc3nc4ccccc4nc3-c3ccccc3)cc21 | > 100 | > 100 | 99.1 | > 100 | > 100 | > 100 | > 100 | > 100 | 14.5 | > 100 | > 100 |
| O=C(O)c1cc(CCc2cc(O)ccc2O)ccc1O | > 100 | > 100 | > 100 | > 100 | > 100 | 77.7 | > 100 | > 100 | > 100 | > 100 | > 100 |
| CC(C)/C(Cl)=N/OC(=O)Nc1ccc(Cl)c(Cl)c1 | 4.33 | 3.25 | 35.3 | 3.16 | 3.39 | 6.21 | 6.92 | 27.3 | 28.6 | 3.72 | 43.8 |
| N#Cc1nc(C#N)n(S(=O)(=O)c2ccccc2)c1NS(=O)(=O)c1ccccc1 | > 100 | > 100 | > 100 | > 100 | > 100 | > 100 | > 100 | > 100 | 79.6 | > 100 | > 100 |
| OC(c1cccnc1Cl)c1nc2ccccc2c2ccnc(Cl)c12 (configuration not stated) | 78.2 | 5.92 | > 100 | > 100 | > 100 | 12.5 | 8.57 | > 100 | > 100 | > 100 | > 100 |
| CC(C)(CCC(C)(C)N1OC1c1ccccc1)N1OC1c1ccccc1 (configuration not stated) | > 100 | 22.2 | > 100 | > 100 | > 100 | 44.3 | 71.4 | 37.8 | 62.7 | 35.8 | > 100 |
| CNNC(=NS(=O)(=O)c1cc(C#N)c(NNC)cc1S)NNC | > 10 | > 10 | > 10 | > 10 | > 10 | > 10 | > 10 | > 10 | > 10 | > 10 | > 10 |
| COc1cc(CNc2nc3ccccc3nc2C(=O)O)cc(OC)c1OC | > 100 | > 100 | > 100 | > 100 | > 100 | > 100 | > 100 | > 100 | > 100 | > 100 | > 100 |
| Clc1ccc2oc(CCc3ccccc3)nc2c1 | > 100 | > 100 | 62.8 | > 100 | > 100 | > 100 | > 100 | 55.4 | > 100 | > 100 | > 100 |
| COc1cccc(C(=O)C#Cc2cnc(OC)nc2OC)c1 | 3.23 | 0.762 | 5.45 | 0.25 | 3.88 | 5.92 | 6.43 | 3.06 | 2.67 | 3.5 | 7.27 |
| COC(=O)C(Cc1c[nH]c2ccccc12)N=C1Nc2ccncc2S(=O)(=O)N1c1cccc(OC(C)C)c1 (configuration not stated) | > 100 | > 100 | > 100 | > 100 | > 100 | 59.3 | 54.4 | > 100 | > 100 | > 100 | > 100 |
